Experimental data reported in US12447153B2, “HER2 mutation inhibitors” (Array BioPharma Inc., priority 2021, dated 2025).

How the values were obtained:
[1] = molecular target: ErbB2 WT (Homo sapiens (Human), UniProt P04626); test: ErbB Enzyme Assay (HTRF KinEASE-TK), Assay 2; format: biochemical
Description: (§1) The kinases were incubated with 250 nM TK-substrate biotin (CisBio, part of cat #62TKOPEC) at 1 mM ATP along with test compounds in a buffer consisting of 25 mM HEPES, pH 7.4, 10 mM MgCl2, 0.01% Triton X-100, and 2% DMSO in a volume of 8 μL. […] After 30-minute incubation at 22° C., the reaction was quenched by adding 8 μL of quench solution containing 62.5 nM Sa-XL665 and 0.25×TK-Ab-Cryptate in HTRF detection buffer (all from CisBio, part of cat #62TKOPEC).

[2] = molecular target: EGFR (Homo sapiens (Human), UniProt P00533); test: ErbB Enzyme Assay (HTRF KinEASE-TK), Assay 3; format: biochemical
Description: as §1, with “#62TKOPEC). […] A 4-parameter logistic curve was fit to the POC values as a function of the concentration of compound, and the IC50 value was the point where the best-fit curve crossed 50 POC.” for “#62TKOPEC).”

[3] = molecular target: ErbB2 with Exon 20 YVMA insertion (HER2-YVMA) (Homo sapiens (Human), UniProt P04626, INS775YVMA); test: Cellular Phosphorylation Assay, Assay 4 (constitutive ErbB2 phosphorylation, NIH 3T3 cells); format: cell-based
Description: (§2) NIH 3T3 cells were engineered to express ErbB2 with Exon 20 YVMA insertion (HER2-YVMA (SEQ ID NO: 2); Assay 4) or EGFR wild type (EGFR WT; Assay 5) with constructs obtained from GenScript and grown in DMEM supplemented with 10% fetal bovine serum and 15 μg/ml blasticidin. […] Serially diluted compounds were added to the plates for 1 hour at 37° C./5% CO2. EGFR WT cells were stimulated with 100 ng/ml rEGF for an additional 10 minutes at 37° C./5% CO2.
(§3) After compound incubation, medium was removed from the cells, which were then fixed in 3.7% formaldehyde in PBS at room temperature for 20 minutes. Following a wash with PBS, cells were permeabilized with 100% methanol at room temperature for 10 minutes. Cells were then washed with PBS/0.05% Tween-20 and blocked with Odyssey blocking buffer (LI-COR Biosciences) for at least 1 hour at room temperature. Antibodies to phosphorylated ErbB2 (Y1196, Cell Signaling #6942) or phosphorylated EGFR (Y1068, Cell Signaling #3777) and GAPDH (Millipore #MAB374) were added to the cells in blocking buffer containing 0.05% azide and incubated overnight at 4° C. After washing with PBS/0.05% Tween-20, the cells were incubated with fluorescently labeled secondary anti-rabbit antibody (LiCOR, IRDye 800CW #926-32211) and anti-mouse antibody (Molecular Probes, Alexa Fluor 680 #A21058) for 1 hour at room temperature in the dark. Cells were then washed and analyzed for fluorescence at both wavelengths using the Odyssey Infrared Imaging System (LI-COR Biosciences). Phosphorylated ErbB2 and EGFR signal was normalized to GAPDH signal to generate curves and calculate IC50 values.

[4] = molecular target: EGFR wild type (EGFR WT) (Homo sapiens (Human), UniProt P00533); test: Cellular Phosphorylation Assay, Assay 5 (EGF-stimulated EGFR phosphorylation, NIH 3T3 cells); format: cell-based
Description: as §2, §3

[5] = cellular ErbB2 YVMA phosphorylation
[6] = cellular EGFR WT phosphorylation, EGF-stimulated
[7] = EGF-stimulated EGFR WT phosphorylation

ErbB2 with Exon 20 YVMA insertion (HER2-YVMA), sequence (P04626 other isoform, or with tags, fused parts or gaps ins YVMA behind 775): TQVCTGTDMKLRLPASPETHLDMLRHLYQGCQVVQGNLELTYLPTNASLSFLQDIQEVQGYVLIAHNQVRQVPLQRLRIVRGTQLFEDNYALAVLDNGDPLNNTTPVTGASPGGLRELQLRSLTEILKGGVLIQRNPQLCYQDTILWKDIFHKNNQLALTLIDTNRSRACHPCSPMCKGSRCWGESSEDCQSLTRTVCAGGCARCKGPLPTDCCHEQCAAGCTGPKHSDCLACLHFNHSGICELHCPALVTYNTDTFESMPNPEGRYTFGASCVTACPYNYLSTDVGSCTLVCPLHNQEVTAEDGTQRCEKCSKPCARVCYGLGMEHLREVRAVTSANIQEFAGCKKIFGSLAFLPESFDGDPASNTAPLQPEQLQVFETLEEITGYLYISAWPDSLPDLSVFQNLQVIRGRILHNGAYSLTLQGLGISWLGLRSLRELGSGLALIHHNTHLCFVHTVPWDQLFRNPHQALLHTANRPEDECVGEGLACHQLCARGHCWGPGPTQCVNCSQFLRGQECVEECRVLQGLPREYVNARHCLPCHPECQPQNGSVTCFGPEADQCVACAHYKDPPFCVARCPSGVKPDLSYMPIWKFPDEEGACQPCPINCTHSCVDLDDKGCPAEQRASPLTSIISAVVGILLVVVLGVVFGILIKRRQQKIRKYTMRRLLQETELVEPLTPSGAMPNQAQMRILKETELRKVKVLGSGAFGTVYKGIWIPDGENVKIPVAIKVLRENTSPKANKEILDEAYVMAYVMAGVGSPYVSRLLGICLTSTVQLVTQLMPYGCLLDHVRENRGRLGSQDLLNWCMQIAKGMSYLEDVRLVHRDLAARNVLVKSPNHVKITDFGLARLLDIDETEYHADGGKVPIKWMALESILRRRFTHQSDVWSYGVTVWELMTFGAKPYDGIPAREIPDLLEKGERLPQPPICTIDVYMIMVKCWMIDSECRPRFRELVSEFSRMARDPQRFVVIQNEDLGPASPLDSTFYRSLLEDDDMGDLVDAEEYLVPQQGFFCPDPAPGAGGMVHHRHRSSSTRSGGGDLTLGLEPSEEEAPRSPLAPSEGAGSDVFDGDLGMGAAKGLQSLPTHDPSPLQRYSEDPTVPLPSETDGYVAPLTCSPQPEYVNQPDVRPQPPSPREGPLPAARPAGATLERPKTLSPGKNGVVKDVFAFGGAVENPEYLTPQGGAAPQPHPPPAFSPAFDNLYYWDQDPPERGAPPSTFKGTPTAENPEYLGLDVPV
EGFR, sequence (P00533 25-1210): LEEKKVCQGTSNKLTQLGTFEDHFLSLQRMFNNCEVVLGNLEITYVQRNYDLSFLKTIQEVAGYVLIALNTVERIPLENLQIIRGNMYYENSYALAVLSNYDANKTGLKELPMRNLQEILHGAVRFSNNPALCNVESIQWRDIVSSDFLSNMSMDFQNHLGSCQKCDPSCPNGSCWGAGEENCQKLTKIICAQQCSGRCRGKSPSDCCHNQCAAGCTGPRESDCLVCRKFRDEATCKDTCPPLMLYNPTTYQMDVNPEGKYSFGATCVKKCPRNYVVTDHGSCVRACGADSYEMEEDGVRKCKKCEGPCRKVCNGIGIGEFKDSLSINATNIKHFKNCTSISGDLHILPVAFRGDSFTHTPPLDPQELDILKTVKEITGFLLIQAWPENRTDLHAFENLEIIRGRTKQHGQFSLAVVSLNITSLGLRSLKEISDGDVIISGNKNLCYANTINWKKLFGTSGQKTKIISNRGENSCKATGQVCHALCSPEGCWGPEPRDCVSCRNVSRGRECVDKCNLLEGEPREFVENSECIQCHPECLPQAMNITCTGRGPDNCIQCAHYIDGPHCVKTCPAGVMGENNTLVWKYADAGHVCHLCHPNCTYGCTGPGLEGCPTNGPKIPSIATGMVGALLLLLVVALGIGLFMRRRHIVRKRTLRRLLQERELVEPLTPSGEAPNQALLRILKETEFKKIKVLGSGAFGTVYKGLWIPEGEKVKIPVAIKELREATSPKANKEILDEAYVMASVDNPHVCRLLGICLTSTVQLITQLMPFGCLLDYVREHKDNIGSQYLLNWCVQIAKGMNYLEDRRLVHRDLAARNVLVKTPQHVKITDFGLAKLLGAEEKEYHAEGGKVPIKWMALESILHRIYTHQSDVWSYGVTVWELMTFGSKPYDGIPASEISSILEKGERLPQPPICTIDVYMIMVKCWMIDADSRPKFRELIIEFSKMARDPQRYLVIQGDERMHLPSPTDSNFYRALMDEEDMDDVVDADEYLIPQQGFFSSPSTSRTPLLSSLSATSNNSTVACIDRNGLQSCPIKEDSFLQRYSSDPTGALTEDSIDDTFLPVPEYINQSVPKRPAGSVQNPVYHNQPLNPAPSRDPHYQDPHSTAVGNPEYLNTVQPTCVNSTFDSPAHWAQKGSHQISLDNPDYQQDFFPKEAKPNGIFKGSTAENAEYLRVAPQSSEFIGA
EGFR wild type (EGFR WT), sequence (P00533 25-1210): as above
ErbB2 WT, sequence (P04626 23-1255): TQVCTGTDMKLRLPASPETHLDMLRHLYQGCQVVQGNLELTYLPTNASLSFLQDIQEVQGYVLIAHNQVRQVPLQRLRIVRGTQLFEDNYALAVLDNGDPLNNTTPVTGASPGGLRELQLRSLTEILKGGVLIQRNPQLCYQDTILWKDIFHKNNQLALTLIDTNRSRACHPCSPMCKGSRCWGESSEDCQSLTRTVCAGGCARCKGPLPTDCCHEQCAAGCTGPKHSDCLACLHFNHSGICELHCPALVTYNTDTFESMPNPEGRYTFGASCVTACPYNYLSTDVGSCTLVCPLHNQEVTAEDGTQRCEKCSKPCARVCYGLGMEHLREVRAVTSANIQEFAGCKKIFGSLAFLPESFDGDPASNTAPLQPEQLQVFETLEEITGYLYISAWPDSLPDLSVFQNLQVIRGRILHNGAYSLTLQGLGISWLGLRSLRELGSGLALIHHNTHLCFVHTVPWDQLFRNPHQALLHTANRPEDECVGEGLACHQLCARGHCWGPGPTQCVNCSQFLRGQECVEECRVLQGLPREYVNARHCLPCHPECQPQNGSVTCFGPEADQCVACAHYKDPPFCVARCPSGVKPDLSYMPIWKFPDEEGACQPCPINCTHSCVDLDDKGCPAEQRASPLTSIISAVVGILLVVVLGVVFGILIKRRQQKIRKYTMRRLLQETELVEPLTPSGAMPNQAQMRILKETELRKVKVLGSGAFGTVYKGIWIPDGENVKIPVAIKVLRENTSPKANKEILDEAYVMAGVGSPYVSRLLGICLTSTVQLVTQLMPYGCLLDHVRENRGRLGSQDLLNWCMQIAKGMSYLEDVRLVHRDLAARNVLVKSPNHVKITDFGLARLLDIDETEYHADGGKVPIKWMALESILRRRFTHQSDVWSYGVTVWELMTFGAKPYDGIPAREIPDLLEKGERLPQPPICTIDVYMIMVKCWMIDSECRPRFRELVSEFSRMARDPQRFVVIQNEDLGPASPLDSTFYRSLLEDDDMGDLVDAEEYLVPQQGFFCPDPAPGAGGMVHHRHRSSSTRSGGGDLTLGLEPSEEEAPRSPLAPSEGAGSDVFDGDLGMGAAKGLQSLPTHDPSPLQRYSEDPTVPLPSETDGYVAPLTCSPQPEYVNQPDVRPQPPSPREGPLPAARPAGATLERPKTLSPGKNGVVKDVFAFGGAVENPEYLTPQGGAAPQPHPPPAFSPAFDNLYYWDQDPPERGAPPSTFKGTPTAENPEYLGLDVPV

Row | SMILES | IC50 ([1]; ErbB2 WT enzyme assay) [nM] | IC50 ([2]; EGFR enzyme assay) [nM] | IC50 [3, 5] [nM] | IC50 [4, 6] [nM] | IC50 ([1]; ErbB2 WT enzyme) [nM] | IC50 ([2]; EGFR enzyme) [nM] | IC50 ([3]; ErbB2 YVMA phosphorylation) [nM] | IC50 [4, 7] [nM]
1 | C=CC(=O)N1CCN(c2ccc3ncnc(Nc4cc(Cl)c(Oc5cnc6c(c5)ncn6C)cc4F)c3n2)C[C@@H]1C1CC1 [Example 440] | 189 | ≥ 10000 | 42.8 | ≥ 5000 | – | – | – | –
2 | CC#CC(=O)N1CCC[C@@H](c2ccc3ncnc(Nc4ccc(Oc5ccn6ncnc6c5)c(C)c4F)c3n2)CC1 (single isomer, unassigned) [Example 211] | – | – | – | – | 65.4 | 5400 | 317 | ≥ 5000
3 | C=CC(=O)N1CCN(c2ccc3ncnc(Nc4ccc(Oc5ccn6ncnc6c5)c(Cl)c4F)c3n2)C[C@@H]1C(F)F (racemic) [Example 299] | 1.2 | 29.4 | 4.1 | 66.2 | – | – | – | –
4 | C=CC(=O)N1[C@@H](C)CN(c2ccc3ncnc(Nc4cc(C)c(Oc5ccc6c(c5)ncn6C)cc4F)c3n2)C[C@@H]1C [Example 257] | 54.2 | ≥ 10000 | 115 | ≥ 5000 | – | – | – | –
5 | C=CC(=O)N1C[C@@H]2CC[C@H]1CN2c1ccc2ncnc(Nc3cc(C)c(Oc4cnc5c(c4)ncn5C)cc3F)c2n1 [Example 324] | 50.8 | 419 | 10.2 | 276 | – | – | – | –
6 | C=CC(=O)N1[C@H](C)CN(c2ccc3ncnc(Nc4ccc(Oc5ccc6c(c5)ncn6C)c(C)c4F)c3n2)C[C@H]1C [Example 255] | 795 | ≥ 10000 | 172 | ≥ 5000 | – | – | – | –
7 | C=CC(=O)N1CCN(c2ccc3ncnc(Nc4ccc(Oc5ccn6ncnc6c5)c(C)c4F)c3n2)C[C@@H]1C1CC1 (racemic) [Example 163, rac-1-(4-(4-((4-([1,2,4]triazolo[1,5-a]pyridin-7-yloxy)-2-fluoro-3-methylphenyl)amino)pyrido[3,2-d]pyrimidin-6-yl)-2-cyclopropylpiperazin-1-yl)prop-2-en-1-one] | – | – | – | – | 42.3 | 8790 | 18.8 | 1510
8 | C=CC(=O)N1C[C@@H]2CC[C@H]1CN2c1ccc2ncnc(Nc3ccc(Oc4ccn5ncnc5c4)c(C)c3F)c2n1 [Example 331] | 4.7 | 48.8 | 3.2 | 79 | – | – | – | –
9 | C=CC(=O)N1CCC(Sc2ccc3ncnc(Nc4ccc(Oc5ccn6ncnc6c5)c(Cl)c4F)c3n2)CC1 [Example 62, 1-(4-((4-((4-([1,2,4]triazolo[1,5-a]pyridin-7-yloxy)-3-chloro-2-fluorophenyl)amino)pyrido[3,2-d]pyrimidin-6-yl)thio)piperidin-1-yl)prop-2-en-1-one] | – | – | – | – | 15.3 | 333 | 28.1 | 639
10 | C=CC(=O)N1[C@@H]2CC[C@H]1[C@H](c1ccc3ncnc(Nc4ccc(Oc5ccn6ncnc6c5)c(C)c4)c3n1)C2 (single isomer, unassigned) [Example 233] | – | – | – | – | 121 | 4880 | 83.8 | ≥ 5000
11 | C=CC(=O)N1CCN(c2ccc3ncnc(Nc4cc(C)c(Oc5ccn6ncnc6c5)cc4F)c3n2)CC1 [Example 79, 1-(4-(4-((4-([1,2,4]triazolo[1,5-a]pyridin-7-yloxy)-2-fluoro-5-methylphenyl)amino)pyrido[3,2-d]pyrimidin-6-yl)piperazin-1-yl)prop-2-en-1-one] | – | – | – | – | 104 | ≥ 10000 | 42.6 | ≥ 5000
12 | CC#CC(=O)N1C[C@@H]2CC[C@H]1CN2c1ccc2ncnc(Nc3ccc(Oc4ccn5ncnc5c4)c(C)c3F)c2n1 [Example 329] | 103 | – | 73.7 | 1420 | – | – | – | –
13 | C=CC(=O)N1C[C@H]2CC[C@@H]1[C@H](c1ccc3ncnc(Nc4cc(C)c(Oc5cnc6c(c5)ncn6C)cc4F)c3n1)C2 [Example 424] | 405 | ≥ 10000 | 44.8 | ≥ 5000 | – | – | – | –
14 | C=CC(=O)N1CCC2CN(c3nc4c(Nc5ccc(Oc6ccn7ncnc7c6)c(Cl)c5F)ncnc4cc3OC)CC21 (stereo not shown) [Example 38, 1-(5-(4-((4-([1,2,4]triazolo[1,5-a]pyridin-7-yloxy)-3-chloro-2-fluorophenyl)amino)-7-methoxypyrido[3,2-d]pyrimidin-6-yl)hexahydropyrrolo[3,4-b]pyrrol-1(2H)-yl)prop-2-en-1-one] | – | – | – | – | 8.5 | 153 | 22.6 | 382
15 | C=CC(=O)N1CC[C@@H]2C[C@@H](c3ccc4ncnc(Nc5cc(C)c(Oc6ccn7ncnc7c6)cc5F)c4n3)C[C@@H]21 (single isomer, unassigned) [Example 224] | – | – | – | – | 58 | 2290 | 91.3 | ≥ 5000
16 | C=CC(=O)N1CC[C@@H]2C[C@H]1CN2c1ccc2ncnc(Nc3cc(Cl)c(Oc4cnc5c(c4)ncn5C)cc3F)c2n1 [Example 456] | 711 | ≥ 10000 | 253 | ≥ 5000 | – | – | – | –
17 | C=CC(=O)N1C[C@H]2CC[C@@H]1[C@@H](c1ccc3ncnc(Nc4ccc(Oc5ccn6ncnc6c5)c(C)c4F)c3n1)C2 [Example 398] | 15.4 | 736 | 74 | ≥ 5000 | – | – | – | –
18 | C=CC(=O)N1CCCC(c2ccc3ncnc(Nc4cc(Cl)c(Oc5ccn6ncnc6c5)cc4F)c3n2)CC1 (stereo not shown) [Example 400] | 16 | 3240 | 45.6 | ≥ 5000 | – | – | – | –
19 | C=CC(=O)N1C[C@@H]2C[C@H]1CN2c1ccc2ncnc(Nc3ccc(Oc4ccn5ncnc5c4)c(Cl)c3F)c2n1 [Example 93, 1-((1S,4S)-5-(4-((4-([1,2,4]triazolo[1,5-a]pyridin-7-yloxy)-3-chloro-2-fluorophenyl)amino)pyrido[3,2-d]pyrimidin-6-yl)-2,5-diazabicyclo[2.2.1]heptan-2-yl)prop-2-en-1-one] | – | – | – | – | 12.6 | 137 | 3.7 | 53.5
20 | C=CC(=O)N1CCN(c2ccc3ncnc(Nc4ccc(Oc5ccc6scnc6c5)c(C)c4)c3n2)CC1(C)C [Example 432] | 37 | 210 | 15.2 | 281 | – | – | – | –
21 | Cc1c(Oc2ccn3ncnc3c2)ccc(Nc2ncnc3ccc(N4CCN(C(=O)C56CC5C6)C(C)(C)C4)nc23)c1F (stereo not shown) [Example 186, (4-(4-((4-([1,2,4]triazolo[1,5-a]pyridin-7-yloxy)-2-fluoro-3-methylphenyl)amino)pyrido[3,2-d]pyrimidin-6-yl)-2,2-dimethylpiperazin-1-yl)(bicyclo[1.1.0]butan-1-yl)methanone] | – | – | – | – | 69.1 | – | 408 | ≥ 5000
22 | CNC(=O)/C=C/c1ccc2ncnc(Nc3ccc(Oc4ccc5c(c4)ncn5C)c(C)c3)c2n1 [Example 22, (E)-N-methyl-3-(4-((3-methyl-4-((1-methyl-1H-benzo[d]imidazol-5-yl)oxy)phenyl)amino)pyrido[3,2-d]pyrimidin-6-yl)acrylamide] | – | – | – | – | 167 | ≥ 10000 | 80.6 | –
23 | C=CC(=O)Nc1ccc2ncnc(Nc3ccc(Oc4ccc5c(c4)ncn5C)c(C)c3)c2n1 [Example 18, N-(4-((3-methyl-4-((1-methyl-1H-benzo[d]imidazol-5-yl)oxy)phenyl)amino)pyrido[3,2-d]pyrimidin-6-yl)acrylamide] | – | – | – | – | 42.3 | 369 | 443 | –
24 | C=CS(=O)(=O)Nc1ccc2ncnc(Nc3ccc(Oc4ccc5c(c4)ncn5C)c(C)c3)c2n1 [Example 20, N-(4-((3-methyl-4-((1-methyl-1H-benzo[d]imidazol-5-yl)oxy)phenyl)amino)pyrido[3,2-d]pyrimidin-6-yl)ethenesulfonamide] | – | – | – | – | 47.9 | 340 | 1740 | –
